Measured values from patent publication US8518883B2, “Method of reducing deleterious effects of ischemia by administration of a thrombopoietin receptor ligand” (MCW Research Foundation, Inc., priority 2006, dated 2013).

System: in vitro rat hearts
Assay: Isolated perfused (Langendorff) rat heart, 25 min global ischemia and 180 min reperfusion: hemodynamics, infarct size, recovery of LVDP
Experimental: The study was directed to determining whether Tpo (0.01-10.0 ng/ml) confers immediate cardioprotection in rat hearts and the contribution of potassium channels to the underlying mechanism. Hearts from normoxic 8 week old Sprague Dawley rats (n=8/group) were isolated and perfused in the Langendorff mode. Hemodynamic function was recorded under steady-state conditions prior to 25 minutes global no flow ischemia and 180 minutes reperfusion.
Isolated heart perfusion. Isolated rat hearts were perfused with bicarbonate buffer at constant pressure in a retrograde manner and instrumented as described in Baker, et al., Am. J. Physiol. Heart Circulat. Physiol. 278:1395-1400, 2000 potassium channel blockers were added to this perfusate as needed. A 3-way tap, located immediately above the site of cannulation, allowed the entire perfusate to be diverted away from the heart to produce global, no-flow ischemia. Reperfusion was achieved by repositioning of the tap to allow perfusate to be delivered to the heart. Left ventricular function was monitored continuously throughout each experiment as described in Baker, et al., supra, 2000. End-diastolic pressure was initially set to 3 mmHg for 2 minutes. The balloon was then progressively inflated with a microsyringe to set end-diastolic pressures to 8 mmHg for the left ventricle, with developed pressure and heart rate recorded during steady-state conditions. Coronary flow rate was measured throughout the experiment by timed collections of the coronary effluent from the right side of the heart into a graduated cylinder. Coronary flow rate was expressed as milliliters per minute per gram wet weight.
Resistance to myocardial ischemia. Hearts from adult rats were perfused with bicarbonate buffer, and biventricular function was monitored continuously throughout each experiment as described in Baker, et al., supra, 2000. For concentration response studies, hearts were then perfused with Tpo (0.01-10.0 ng/ml) for 15 minutes prior to 25 minutes ischemia and 180 minutes reperfusion. For mechanism studies with potassium channel blockers, hearts were perfused with drugs for 15 minutes alone followed by 15 minutes in combination with Tpo prior to ischemia. Hearts perfused with potassium channel blockers alone in the absence of Tpo for 30 minutes prior to ischemia served as untreated controls for these studies. Recovery of post-ischemic left ventricular developed pressure was expressed as a percentage of its pre-drug, pre-ischemic value.
Assessment of ventricular function. Left ventricular function was monitored continuously throughout each experiment as described in Baker, et al., supra, 2000. Recovery of left ventricular pressure following ischemia was used to assess resistance to ischemia.
Measurement of infarct size/area at risk at 3 hours reperfusion were used to assess resistance to myocardial ischemia. For characterization of infarction size, hearts were perfused with 10 ml bicarbonate buffer containing triphenyltetrazolium chloride (SIGMA) at 37° C.
The heart was sectioned in 2 mm segments from apex to atrio-ventricular groove in a transverse fashion. Each segment was recorded and placed in formalin. After twenty-four (24) hours, the specimen was digitally photographed in a camera mount to normalize specimen-to-lens distance. Each photograph was then appended to Adobe Photoshop (Adobe™) to measure pixel density of infarcted versus non-infarcted areas. The percentage of infarction of each slide was expressed as a percentage of the entire area of the heart.
Hearts from male Sprague Dawley rats at 8 weeks of age were isolated and perfused with Tpo at 0.01, 0.1, 1.0, and 10 ng/ml for 15 minutes prior to 25 minutes global ischemia and 180 minutes reperfusion (FIG. 2). Tpo (1.0 ng/ml) reduced coronary flow rate prior to ischemia from 6±1 ml/min/g to 5±1 ml/min/g, increased left ventricular developed pressure from 119±15 mmHg to 151±19 mmHg and decreased heart rate from 240±34 beats/minute to 228±17 beats/minute. […]

[1] = POST DRUG, Tpo 0.01 ng/ml for 15 min
[2] = POST DRUG, Tpo 0.1 ng/ml for 15 min
[3] = POST DRUG, Tpo 1.0 ng/ml for 15 min
[4] = POST DRUG, Tpo 10.0 ng/ml for 15 min
[5] = REPERFUSION, Tpo 0.01 ng/ml, 25 min global ischemia, 180 min reperfusion
[6] = REPERFUSION, Tpo 0.1 ng/ml, 25 min global ischemia, 180 min reperfusion
[7] = REPERFUSION, Tpo 1.0 ng/ml, 25 min global ischemia, 180 min reperfusion
[8] = REPERFUSION, Tpo 10.0 ng/ml, 25 min global ischemia, 180 min reperfusion
[9] = Tpo 0.01-10.0 ng/ml for 15 min prior to 25 min global ischemia, 180 min reperfusion

For Thrombopoietin [Tpo], the “Infarct size following ischemia and reperfusion” value ('U' shaped concentration-dependent, Tpo 0.01-10.0 ng/ml) was “reduced”, the Coronary flow rate [1] was 5 ± 1 mL/min/g and the Heart rate [1] was 202 ± 16 beats/min. For the same substance, the “Left ventricle developed pressure” value [1] was 156 ± 13 mmHg, the Coronary flow rate [2] was 5 ± 1 mL/min/g and the Heart rate [2] was 233 ± 12 beats/min. The “Left ventricle developed pressure” value [2] was 158 ± 13 mmHg, the Coronary flow rate [3] was 5 ± 1 mL/min/g and the Heart rate [3] was 228±17 beats/min. The “Left ventricle developed pressure” value [3] was 151±19 mmHg, the Coronary flow rate [4] was 6 ± 1 mL/min/g and the Heart rate [4] was 220 ± 10 beats/min. The “Left ventricle developed pressure” value [4] was 172 ± 26 mmHg, the Coronary flow rate (PRE DRUG, Tpo 0.01 ng/ml group) was 6 ± 1 mL/min/g and the Heart rate (PRE DRUG, Tpo 0.01 ng/ml group) was 225 ± 31 beats/min. The “Left ventricle developed pressure” value (PRE DRUG, Tpo 0.01 ng/ml group) was 130 ± 13 mmHg, the Coronary flow rate (PRE DRUG, Tpo 0.1 ng/ml group) was 5 ± 1 mL/min/g and the Heart rate (PRE DRUG, Tpo 0.1 ng/ml group) was 228 ± 17 beats/min. For the same substance, the “Left ventricle developed pressure” value (PRE DRUG, Tpo 0.1 ng/ml group) was 120 ± 15 mmHg, the Coronary flow rate (PRE DRUG, Tpo 1.0 ng/ml group) was 6 ± 1 mL/min/g and the Heart rate (PRE DRUG, Tpo 1.0 ng/ml group) was 240±34 beats/min. For the same substance, the “Left ventricle developed pressure” value (PRE DRUG, Tpo 1.0 ng/ml group) was 119±15 mmHg, the Coronary flow rate (PRE DRUG, Tpo 10.0 ng/ml group) was 6 ± 1 mL/min/g and the Heart rate (PRE DRUG, Tpo 10.0 ng/ml group) was 226 ± 29 beats/min. The “Left ventricle developed pressure” value (PRE DRUG, Tpo 10.0 ng/ml group) was 134 ± 13 mmHg, the Coronary flow rate [5] was 3 ± 1 mL/min/g and the Heart rate [5] was 184 ± 31 beats/min. The “Left ventricle developed pressure” value [5] was 52 ± 9 mmHg, the Coronary flow rate [6] was 3 ± 1 mL/min/g and the Heart rate [6] was 197 ± 36 beats/min. For the same substance, the “Left ventricle developed pressure” value [6] was 64 ± 11 mmHg, the Coronary flow rate [7] was 4 ± 1 mL/min/g and the Heart rate [7] was 204 ± 41 beats/min. The “Left ventricle developed pressure” value [7] was 62 ± 8 mmHg, the Coronary flow rate [8] was 4 ± 1 mL/min/g and the Heart rate [8] was 183 ± 16 beats/min. The “Left ventricle developed pressure” value [8] was 64 ± 10 mmHg, the “Recovery of coronary flow rate” value (Tpo 1.0 ng/ml) was “unaffected” and the “Recovery of heart rate” value (Tpo 1.0 ng/ml, untreated hearts 94±6%) was 85±7 % of pre-ischemic values. For the same substance, the “Optimal concentration of Tpo that afforded maximum reduction of infarct size” value [9] was 1.0 ng/mL, the “Optimal concentration that afforded maximal recovery of post-ischemic ventricular developed pressure” value [9] was 1.0 ng/mL and the “Recovery of left ventricular developed pressure following ischemia and reperfusion” value (bell-shaped concentration-dependent, Tpo 0.01-10.0 ng/ml) was “increased”.
